The record followed here is US8288549B2, “Glycine B antagonist” (Merz Pharma GmbH & Co. KGaA, priority 2008, dated 2012).

Where a name gives a salt, the structure may show the parent alone.

Tested on in one data set: not given
Experiment: not given
Conditions: not given
Turning to `Br.Br.NCCCC[C@H](Nc1nc2ccc(Cl)cc2cc1C(=O)O)C(=O)O`, the melting point is 174 to 182 °C.
On the same count and under the same terms, the same measure for `Nc1cc(C[C@H](Nc2nc3ccc(Cl)cc3cc2C(=O)O)C(=O)O)ccc1O`: above 250 °C.
As to `O=C(O)c1cc2cc(Cl)ccc2nc1N[C@@H](Cc1ccc(O)c(Cl)c1)C(=O)O`, the melting point is 150 to 175 °C (dec.).
Turning to `O=C(O)c1ccc(CC(Nc2nc3ccc(Cl)cc3cc2C(=O)O)C(=O)O)cc1` (centres unmarked), the melting point was > 180 °C (dec.).
`Nc1ccc(CC(Nc2nc3ccc(Cl)cc3cc2C(=O)O)C(=O)O)cc1` (centres unmarked): the melting point is > 250 °C (dec.).
Turning to `COc1cccc(CC(Nc2nc3ccc(Cl)cc3cc2C(=O)O)C(=O)O)c1` (centres unmarked), the melting point was 165 to 170 °C (dec.).
As to `COc1ccccc1CC(Nc1nc2ccc(Cl)cc2cc1C(=O)O)C(=O)O` (centres unmarked), the melting point was > 180 °C (dec.).
In the case of `O=C(O)c1cccc(CC(Nc2nc3ccc(Cl)cc3cc2C(=O)O)C(=O)O)c1` (centres unmarked), the melting point is > 250 °C (dec.).
In the case of `O=C(O)c1cc2cc(Cl)ccc2nc1NC(Cc1cccc(F)c1)C(=O)O` (centres unmarked), the melting point was in the range of 177 to 181 °C.
On the same count and under the same terms, the same measure for `O=C(O)c1cc2cc(Cl)ccc2nc1NC(Cc1cccnc1)C(=O)O` (centres unmarked): > 170 °C (dec.); for `O=C(O)c1cc2cc(Cl)ccc2nc1N[C@@H](Cc1ccc(Oc2ncccc2C(=O)O)cc1)C(=O)O` (as salt: salt) [Example 100, 2-{(S)-1-Carboxy-2-[4-(3-carboxy-pyridin-2-yloxy)-phenyl]-ethylamino}-6-chloro-quinoline-3-carboxylic acid]: > 166 °C (dec.).
For the molecule `O=C(O)c1cc2cc(Cl)ccc2nc1NC(CCc1ccccc1)C(=O)O` (centres unmarked) [Example 28, 2-(1-Carboxy-3-phenyl-propylamino)-6-chloro-quinoline-3-carboxylic acid], the melting point is 179 to 182 °C (dec.).
Same read-out and setting: the result for `O=C(O)c1cc2ccccc2nc1N[C@H](Cc1ccccc1)C(=O)O` [Example 44, 2-((R)-1-Carboxy-2-phenyl-ethylamino)-quinoline-3-carboxylic acid] reads 140 to 141.5 °C; that for `O=C(O)c1cc2cc(Cl)ccc2nc1NC(Cc1ccc(O)c(F)c1)C(=O)O` (centres unmarked) [Example 52, 2-[1-Carboxy-2-(3-fluoro-4-hydroxy-phenyl)-ethylamino]-6-chloro-quinoline-3-carboxylic acid], > 160 °C (dec.).
The same measure, in the same setting: the result for `Cc1cc(C)n(CC(Nc2nc3ccc(Cl)cc3cc2C(=O)O)C(=O)O)n1` (centres unmarked) [Example 57, 2-[1-Carboxy-2-(3,5-dimethyl-pyrazol-1-yl)-ethylamino]-6-chloro-quinoline-3-carboxylic acid] reads > 200 °C (dec.).
As to `O=C(O)c1cc2cc(Cl)ccc2nc1NC(Cc1ccc(C#Cc2ccccc2)cc1)C(=O)O` (centres unmarked) [Example 62, 2-[1-Carboxy-2-(4-phenylethynyl-phenyl)-ethylamino]-6-chloro-quinoline-3-carboxylic acid], the melting point lay in the range of 164 to 173 °C.
On the same count and under the same terms, the same measure for `COc1ccc(Cl)c(CC(Nc2nc3ccc(Cl)cc3cc2C(=O)O)C(=O)O)c1` (centres unmarked) [Example 68, 2-[1-Carboxy-2-(2-chloro-5-methoxy-phenyl)-ethylamino]-6-chloro-quinoline-3-carboxylic acid]: 180 to 185 °C; for `O=C(O)c1cc2cc(Cl)ccc2nc1NC(Cc1cccc(Oc2nc3ccc(Cl)cc3cc2C(=O)O)c1)C(=O)O` (centres unmarked) [Example 81, 2-{2-[3-(3-carboxy-6-chloro-quinolin-2-yloxy)-phenyl]-1-carboxy-ethylamino}-6-chloro-quinoline-3-carboxylic acid]: 186 to 197 °C (dec.); for `O=C(O)c1cc2cc(Cl)ccc2nc1NC(Cc1cccc(CC(Nc2nc3ccc(Cl)cc3cc2C(=O)O)C(=O)O)c1)C(=O)O` (centres unmarked) [Example 82, 2-{2-[3-[2-(3-Carboxy-6-chloro-quinolin-2-yl)amino-2-carboxy-ethyl]-phenyl]-1-carboxy-ethylamino}-6-chloro-quinoline-3-carboxylic acid]: > 185 °C (dec.).
Still for that read-out and setting: the result for `O=C(O)c1cc2cc(Cl)ccc2nc1NC(Cc1cccs1)C(=O)O` (centres unmarked) [Example 83, 2-(1-Carboxy-2-thiophen-2-yl-ethylamino)-6-chloro-quinoline-3-carboxylic acid] reads > 250 °C (dec.).
Same read-out and setting: the result for `O=C(O)c1cc2cc(Cl)ccc2nc1NC(Cc1ccc(Oc2ccc3ccccc3n2)cc1)C(=O)O` (centres unmarked) [Example 96, 2-{1-Carboxy-2-[4-(quinolin-2-yloxy)-phenyl]-ethylamino}-6-chloro-quinoline-3-carboxylic acid] reads 136 °C; that for `O=C(O)c1cc2cc(Cl)ccc2nc1NC(COCc1ccccc1)C(=O)Nc1ccccc1` (centres unmarked) [Example 117, 2-(2-Benzyloxy-1-phenylcarbamoyl-ethylamino)-6-chloro-quinoline-3-carboxylic acid], 150 to 151 °C; that for `O=C(O)c1cc2cc(Cl)ccc2nc1NC(C(=O)O)C(C(=O)O)c1cc(F)cc(F)c1` (centres unmarked) [Example 136, 2-(3-Carboxy-6-chloro-quinolin-2-ylamino)-3-(3,5-difluoro-phenyl)-succinic acid], 230 to 250 °C (dec.).

For the next data set, the target named is T1, NMDA receptor glycine B site (Rattus norvegicus, UniProt P35439).
T1 construct: Hippocampi are then isolated from the brains of at least 8 embryos after decapitation; endogenous in cells; host or cells: primary cultured hippocampal neurons from E20 Sprague-Dawley rat embryos, 11-15 DIV
The experiment in a line: Whole cell patch-clamp recordings in cultured rat hippocampal neurons (NMDA/D-Serine evoked currents). The format is cell-based. Conditions: NMDA (200 μM) and D-Serine (1 μM), holding potential −70 mV, read-out: NMDA-PC-r-HIC-NAM - IC50. On the procedure: Antagonistic potencies of the test compounds are functionally evaluated using electrophysiological whole cell patch-clamp recordings and/or fluorometric intracellular Ca^2+-imaging (FLIPR) screens.
Cell preparation is performed as described by Parsons, et al. (Neuropharmacology, 1998, 37(6), 719-727). The female Sprague-Dawley rat is anaesthetised by placing in a saturated CO2-euthanasia chamber under further quiet CO2-influx. Under these conditions the rat loses consciousness after a few seconds and is then sacrificed by cervical dislocation. After opening the abdominal cavity, embryos (E20) are removed and stored in ice cold Ca^2+- and Mg^2+-free Hank's Buffered Salt Solution (pH 7.3), containing 4 g/l glucose (HBSS-CMF). Hippocampi are then isolated from the brains of at least 8 embryos after decapitation, transferred into ice cold HBSS-CMF and washed 3 to 4 times.
Hippocampi are pre-incubated for 8 min with a 0.66% trypsin (Sigma-Aldrich) and 0.1% (20 U/ml) DNAase solution (Sigma-Aldrich) in Ca^2+-free Phosphate Buffered Saline (PBS-CF) and washed 3 times with HBSS-CMF. Cells are then mechanically dissociated by trituration in a PBS-CF solution containing 0.05% (10 U/ml) DNAase and 0.3% of the trypsin inhibitor ovomucoid (all from Sigma-Aldrich). The cells are then centrifuged at 180×g for 10 minutes, and the cell pellet re-suspended in basal Minimum essential medium (MEM, Invitrogen, Karlsruhe, Germany), again carefully triturated to ensure maximal dissociation and finally plated in the flexiPERM inserts (Thermo Fisher Scientific, Langenselbold, Germany) at a density of 15×10^3 cells/cm^2 (0.5 ml/insert) onto poly-DL-ornithine (Sigma) and mouse laminin (Invitrogen) pre-coated plastic petri dishes. After 1 hour the cells become attached to the bottom of the dish and the inserts may be removed. The cells are then nourished with 2 ml MEM supplemented with 5% foetal calf serum (FCS) and 5% horse serum and incubated at 37° C. with 95% air and 5% CO2 at 95% humidity. After 4 days in vitro (DIV) further glial mitosis is inhibited by adding 10 μl of AraC (5 μM endconcentration). The medium is completely exchanged after an additional 2 DIV and again, but only partly (50%), after 8 DIV. The cells are used for electrophysiological recordings after 11-15 DIV.
Cells are visualised using an inverted microscope and selected for patching based upon their position and morphology. Voltage clamp recordings are made in the whole cell configuration of the patch clamp technique at a holding potential of −70 mV with the aid of an EPC-10 amplifier in combination with pipette manipulator. Patch clamp pipettes are pulled from borosilicate glass using a horizontal puller (P-97 Puller, Sutter Instruments, USA) and, when filled with intracellular solution, have resistances of 1-4 MΩ.
Solutions are delivered via a home-made gravity driven very fast perfusion system (<10 ms) including valves to switch flow on and off in combination with a stepper motor-driven double-barreled theta glass application pipette in order to expose cells to either agonist-free or agonist-containing solutions in presence or absence of antagonist.
The intracellular solution used consists of: 120 mM CsCl, 10 mM EGTA, 1 mM MgCl2, 200 μM CaCl2, 10 mM glucose and 22 mM tetraethyl ammonium chloride (TEA-CL). The corresponding extracellular bath solution contains: 140 mM NaCl, 3 mM KCl, 10 mM glucose, 10 mM HEPES, 1.5 mM CaCl2 and 4.5 mM sucrose (all from Sigma-Aldrich) pH 7.3, and is supplemented with 0.3 μM tetrodotoxin (TTX, Tocris, Bristol, U.K.) to block voltage-activated sodium channels and 0.25 μM bicuculline (Sigma-Aldrich) to block GABAA receptors. […]
Take `O=C(O)c1cc2cc(Cl)ccc2nc1N[C@H](Cc1ccccc1)C(=O)O` [Example 6, 2-((R)-1-Carboxy-2-phenyl-ethylamino)-6-chloro-quinoline-3-carboxylic acid]: the half-maximal inhibitory concentration (IC50) is 534 nM.
With `Cn1cc(C[C@H](Nc2nc3ccc(Cl)cc3cc2C(=O)O)C(=O)O)c2ccccc21` [Example 15, 2-[(S)-1-Carboxy-2-(1-methyl-1H-indol-3-yl)-ethylamino]-6-chloro-quinoline-3-carboxylic acid], the half-inhibitory concentration (IC50) was found to be 1360 nM.
With `O=C(O)c1cc2cc(Cl)ccc2nc1N[C@@H](Cc1ccc(Cl)cc1)C(=O)O` [Example 23, 2-[(S)-1-Carboxy-2-(4-chloro-phenyl)-ethylamino]-6-chloro-quinoline-3-carboxylic acid], the concentration for half-maximal inhibition (IC50) amounted to 898 nM.
The same measure, in the same setting: the same measure for `O=C(O)c1cc2cc(Cl)ccc2nc1N[C@@H](Cc1ccc(O)cc1)C(=O)O` [Example 34, 2-[(S)-1-Carboxy-2-(4-hydroxy-phenyl)-ethylamino]-6-chloro-quinoline-3-carboxylic acid]: 1670 nM.
Still for that read-out and setting: the result for `O=C(O)c1cc2cc(Cl)c(Cl)cc2nc1N[C@H](Cc1c[nH]c2ccccc12)C(=O)O` [Example 36, 2-[(R)-1-Carboxy-2-(1H-indol-3-yl)-ethylamino]-6,7-dichloro-quinoline-3-carboxylic acid] reads 1150 nM.
On the same count and under the same terms, the result for `O=C(O)c1cc2cc(Cl)ccc2nc1NC(Cc1ccc(Nc2ccc3ccccc3n2)cc1)C(=O)O` (centres unmarked) [Example 108, 2-{1-Carboxy-2-[4-(quinolin-2-ylamino)-phenyl]-ethylamino}-6-chloro-quinoline-3-carboxylic acid] reads 560 nM; that for `O=C(O)c1cc2cc(Cl)ccc2nc1NC(Cc1ccc(Oc2nc3ccccc3cc2C(=O)O)cc1)C(=O)O` (centres unmarked) [Example 110, 2-{1-Carboxy-2-[4-(3-carboxy-quinolin-2-yloxy)-phenyl]-ethylamino}-6-chloro-quinoline-3-carboxylic acid], 380 nM.
As for `O=C(O)C[C@H](Nc1nc2ccc(Cl)cc2cc1C(=O)O)C(=O)O` [Example 114, (S)-2-(3-Carboxy-6-chloro-quinolin-2-ylamino)-succinic acid ammonia hydrate], the IC50 is 720 nM.
Take `O=C(O)c1cc2cc(Cl)cc(Cl)c2nc1NC(Cc1cccc(F)c1)C(=O)O` (centres unmarked) [Example 115, 2-[1-Carboxy-2-(3-fluoro-phenyl)-ethylamino]-6,8-dichloro-quinoline-3-carboxylic acid]: the concentration for half-maximal inhibition (IC50) was 510 nM.
